Measurements published in US10493077B2, “Fused imidazo-piperidine JAK inhibitor compound” (THERAVANCE BIOPHARMA R&D IP, LLC, priority 2017, dated 2019).
Each block holds one compound with its values, some of them ahead of it.

Key:
[1] = molecular target: T1, SYK (Homo sapiens, UniProt P43405); assay: Kinome screen, SYK; format: binding; settings: screened at 1 μM
T1 construct: made in house; host or cells: T7 phage in E. coli (BL21-derived) or HEK-293
Procedure: (§1) Kinase-tagged T7 phage strains were grown in parallel in 24-well blocks in an E. coli host derived from the BL21 strain. E. coli were grown to log-phase and infected with T7 phage from a frozen stock (multiplicity of infection=0.4) and incubated with shaking at 32° C. until lysis (90-150 minutes). The lysates were centrifuged (6,000×g) and filtered (0.2 μm) to remove cell debris. The remaining kinases were produced in HEK-293 cells and subsequently tagged with DNA for qPCR detection.
(§2) Streptavidin-coated magnetic beads were treated with biotinylated small molecule ligands for 30 minutes at room temperature to generate affinity resins for kinase assays. The liganded beads were blocked with excess biotin and washed with blocking buffer (SeaBlock (Pierce), 1% BSA, 0.05% Tween 20, 1 mM DTT) to remove unbound ligand and to reduce non-specific phage binding. […] Test compounds were prepared as 40× stocks in 100% DMSO and directly diluted into the assay. All reactions were performed in polypropylene 384-well plates in a final volume of 0.04 ml. […] The beads were then re-suspended in elution buffer (1×PBS, 0.05% Tween 20, 0.5 μM non-biotinylated affinity ligand) and incubated at room temperature with shaking for 30 minutes. The kinase concentration in the eluates was measured by qPCR.

[2] = molecular target: T2, VEGFR2 (Homo sapiens, UniProt P35968); assay: Kinome screen, VEGFR2; format: binding; settings: screened at 1 μM
T2 construct: made in house; host or cells: T7 phage in E. coli (BL21-derived) or HEK-293
Procedure: as §1, §2

[3] = molecular target: T3, EPHB6 (Homo sapiens, UniProt O15197); assay: Kinome screen, EPHB6; format: binding; settings: screened at 1 μM
T3 construct: made in house; host or cells: T7 phage in E. coli (BL21-derived) or HEK-293
Procedure: as §1, §2

[4] = molecular target: T4, PKAC-ALPHA (Homo sapiens, UniProt P17612); assay: Kinome screen, PKAC-ALPHA; format: binding; settings: screened at 1 μM
T4 construct: made in house; host or cells: T7 phage in E. coli (BL21-derived) or HEK-293
Procedure: as §1, §2

[5] = molecular target: T5, CDK9 (Homo sapiens, UniProt P50750); assay: Kinome screen, CDK9; format: binding; settings: screened at 1 μM
T5 construct: made in house; host or cells: T7 phage in E. coli (BL21-derived) or HEK-293
Procedure: as §1, §2

[6] = molecular target: T6, GSK3B (Homo sapiens, UniProt P49841); assay: Kinome screen, GSK3B; format: binding; settings: screened at 1 μM
T6 construct: made in house; host or cells: T7 phage in E. coli (BL21-derived) or HEK-293
Procedure: as §1, §2

[7] = molecular target: T7, CDK7 (Homo sapiens, UniProt P50613); assay: Kinome screen, CDK7; format: binding; settings: screened at 1 μM
T7 construct: made in house; host or cells: T7 phage in E. coli (BL21-derived) or HEK-293
Procedure: as §1, §2

[8] = molecular target: T8, SLK (Homo sapiens, UniProt Q9H2G2); assay: Kinome screen, SLK; format: binding; settings: screened at 1 μM
T8 construct: made in house; host or cells: T7 phage in E. coli (BL21-derived) or HEK-293
Procedure: as §1, §2

[9] = molecular target: T9, KIT (Homo sapiens, UniProt P10721); assay: Kinome screen, KIT; format: binding; settings: screened at 1 μM
T9 construct: made in house; host or cells: T7 phage in E. coli (BL21-derived) or HEK-293
Procedure: as §1, §2

[10] = molecular target: T10, CDK2 (Homo sapiens, UniProt P24941); assay: Kinome screen, CDK2; format: binding; settings: screened at 1 μM
T10 construct: made in house; host or cells: T7 phage in E. coli (BL21-derived) or HEK-293
Procedure: as §1, §2

[11] = tested on: 35 different kinases; assay: Kinome screen: GINI coefficient; format: binding; settings: panel of 35 different kinases; higher number = more selective
Procedure: as §1
as §2, with “The” for “The beads were then re-suspended in elution buffer (1×PBS, 0.05% Tween 20, 0.5 μM non-biotinylated affinity ligand) and incubated at room temperature with shaking for 30 minutes. The”
Both compounds 1 and C-1 were screened against 35 different kinases. The Gini coefficient was determined for both compounds. […]

[12] = molecular target: T11, SRC (Homo sapiens, UniProt P12931); assay: Kinome screen, SRC; format: binding; settings: screened at 1 μM
T11 construct: made in house; host or cells: T7 phage in E. coli (BL21-derived) or HEK-293
Procedure: as §1, §2

[13] = molecular target: T12, AURKA (Homo sapiens, UniProt O14965); assay: Kinome screen, AURKA; format: binding; settings: screened at 1 μM
T12 construct: made in house; host or cells: T7 phage in E. coli (BL21-derived) or HEK-293
Procedure: as §1, §2

[14] = molecular target: T13, CSF1R (Homo sapiens, UniProt P07333); assay: Kinome screen, CSF1R; format: binding; settings: screened at 1 μM
T13 construct: made in house; host or cells: T7 phage in E. coli (BL21-derived) or HEK-293
Procedure: as §1, §2

[15] = molecular target: T14, PLK4 (Homo sapiens, UniProt O00444); assay: Kinome screen, PLK4; format: binding; settings: screened at 1 μM
T14 construct: made in house; host or cells: T7 phage in E. coli (BL21-derived) or HEK-293
Procedure: as §1, §2

[16] = molecular target: T15, ALK (Homo sapiens, UniProt Q9UM73); assay: Kinome screen, ALK; format: binding; settings: screened at 1 μM
T15 construct: made in house; host or cells: T7 phage in E. coli (BL21-derived) or HEK-293
Procedure: as §1, §2

[17] = molecular target: T16, PAK4 (Homo sapiens, UniProt O96013); assay: Kinome screen, PAK4; format: binding; settings: screened at 1 μM
T16 construct: made in house; host or cells: T7 phage in E. coli (BL21-derived) or HEK-293
Procedure: as §1, §2

[18] = tested on: BEAS-2B human lung epithelial cells; assay: CellTiter-Glo cell viability/cytotoxicity assay; format: cell-based; settings: BEAS-2B cells, 48 h, concentration at 15% inhibition threshold
Procedure: A CellTiter-Glo luminescent cell viability/cytotoxicity assay was carried out in BEAS-2B human lung epithelial cells (ATCC) under the normal growth condition.
Cells were grown at 37° C. in a 5% CO2 humidified incubator in 50% DMEM/50% F-12 medium (Life Technologies) supplemented with 10% FBS (Hyclone), 100 U/mL penicillin, 100 μg/mL streptomycin (Life Technologies), and 2 mM GlutaMAX (Life Technologies). On day 1 of the assay, cells were seeded at a 500 cells/well density in white 384-well tissue culture plates (Corning) with 25 μL medium, and were allowed to adhere overnight in the incubator. On day 2 of the assay, 5 μL of medium containing dose-responses of test compounds was added, and incubated at 37° C. for 48 h. 30 μL of CellTiter-Glo detection solution (Promega) was subsequently added, mixed on an orbital shaker for 5 min, and incubated for additional 10 min before being read on the EnVision reader. Luminescence signals were recorded and percent DMSO control values were calculated.
For dose-response analysis, percent DMSO control data were plotted vs. compound concentrations to derive dose-response curves by line connecting each data point. The concentration at which each curve crosses the 15% inhibition threshold is defined as CC15.

[19] = Solid state stability assessment of Form 1; format: physicochemical
Procedure: Samples of the Form 1 crystalline free form of the invention were stored at 25° C. and 60% relative humidity (RH) and at 40° C. and 75% RH under two configurations a) open glass vial and b) closed glass vial placed inside an HDPE bottle containing desiccant. HDPE bottle was induction sealed. At specific intervals, the contents of a representative sample were removed and analyzed by HPLC for chemical purity (shown below as HPLC Purity (% a/a)).

[20] = Dynamic moisture sorption assessment; format: physicochemical; settings: for weight gain, 5% to 70% relative humidity / weight gain, 5% to 90% relative humidity: room temperature
Procedure: Dynamic moisture sorption (DMS) measurement was performed using a VTI atmospheric microbalance, SGA-100 system (VTI Corp., Hialeah, Fla. 33016). A weighed sample was used and the humidity was lowest possible value (close to 0% RH) at the start of the analysis. The DMS analysis consisted of an initial drying step (0% RH) for 120 minutes, followed by two cycles of sorption and desorption with a scan rate of 5% RH/step over the humidity range of 5% RH to 90% RH. The DMS run was performed isothermally at 25° C.

T3 sequence (O15197 32-1021): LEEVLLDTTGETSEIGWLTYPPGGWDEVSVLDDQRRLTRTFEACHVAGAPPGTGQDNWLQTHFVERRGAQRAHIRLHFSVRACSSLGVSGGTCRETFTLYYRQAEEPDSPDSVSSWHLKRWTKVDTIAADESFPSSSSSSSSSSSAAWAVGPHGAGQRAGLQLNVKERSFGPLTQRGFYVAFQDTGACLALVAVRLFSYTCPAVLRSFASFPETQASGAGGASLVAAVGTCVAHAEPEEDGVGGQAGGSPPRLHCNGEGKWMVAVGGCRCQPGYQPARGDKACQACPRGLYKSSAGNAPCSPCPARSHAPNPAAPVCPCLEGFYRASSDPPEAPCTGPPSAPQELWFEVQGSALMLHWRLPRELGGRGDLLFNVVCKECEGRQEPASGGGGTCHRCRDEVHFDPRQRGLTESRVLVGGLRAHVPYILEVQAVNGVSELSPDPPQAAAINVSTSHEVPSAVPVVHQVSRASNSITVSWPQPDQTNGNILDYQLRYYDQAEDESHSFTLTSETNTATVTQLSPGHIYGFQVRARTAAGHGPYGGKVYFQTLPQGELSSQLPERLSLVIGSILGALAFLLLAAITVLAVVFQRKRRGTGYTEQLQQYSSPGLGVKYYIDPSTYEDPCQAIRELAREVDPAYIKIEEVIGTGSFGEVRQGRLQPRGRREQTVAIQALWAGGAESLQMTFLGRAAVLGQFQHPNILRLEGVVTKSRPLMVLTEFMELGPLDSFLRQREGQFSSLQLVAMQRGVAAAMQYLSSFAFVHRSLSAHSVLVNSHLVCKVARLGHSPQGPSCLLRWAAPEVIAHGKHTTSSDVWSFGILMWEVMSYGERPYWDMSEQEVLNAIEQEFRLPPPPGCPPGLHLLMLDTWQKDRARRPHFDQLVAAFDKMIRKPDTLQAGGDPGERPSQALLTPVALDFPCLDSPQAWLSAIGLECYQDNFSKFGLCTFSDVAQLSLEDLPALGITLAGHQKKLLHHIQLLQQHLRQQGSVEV
T15 sequence (Q9UM73 19-1620): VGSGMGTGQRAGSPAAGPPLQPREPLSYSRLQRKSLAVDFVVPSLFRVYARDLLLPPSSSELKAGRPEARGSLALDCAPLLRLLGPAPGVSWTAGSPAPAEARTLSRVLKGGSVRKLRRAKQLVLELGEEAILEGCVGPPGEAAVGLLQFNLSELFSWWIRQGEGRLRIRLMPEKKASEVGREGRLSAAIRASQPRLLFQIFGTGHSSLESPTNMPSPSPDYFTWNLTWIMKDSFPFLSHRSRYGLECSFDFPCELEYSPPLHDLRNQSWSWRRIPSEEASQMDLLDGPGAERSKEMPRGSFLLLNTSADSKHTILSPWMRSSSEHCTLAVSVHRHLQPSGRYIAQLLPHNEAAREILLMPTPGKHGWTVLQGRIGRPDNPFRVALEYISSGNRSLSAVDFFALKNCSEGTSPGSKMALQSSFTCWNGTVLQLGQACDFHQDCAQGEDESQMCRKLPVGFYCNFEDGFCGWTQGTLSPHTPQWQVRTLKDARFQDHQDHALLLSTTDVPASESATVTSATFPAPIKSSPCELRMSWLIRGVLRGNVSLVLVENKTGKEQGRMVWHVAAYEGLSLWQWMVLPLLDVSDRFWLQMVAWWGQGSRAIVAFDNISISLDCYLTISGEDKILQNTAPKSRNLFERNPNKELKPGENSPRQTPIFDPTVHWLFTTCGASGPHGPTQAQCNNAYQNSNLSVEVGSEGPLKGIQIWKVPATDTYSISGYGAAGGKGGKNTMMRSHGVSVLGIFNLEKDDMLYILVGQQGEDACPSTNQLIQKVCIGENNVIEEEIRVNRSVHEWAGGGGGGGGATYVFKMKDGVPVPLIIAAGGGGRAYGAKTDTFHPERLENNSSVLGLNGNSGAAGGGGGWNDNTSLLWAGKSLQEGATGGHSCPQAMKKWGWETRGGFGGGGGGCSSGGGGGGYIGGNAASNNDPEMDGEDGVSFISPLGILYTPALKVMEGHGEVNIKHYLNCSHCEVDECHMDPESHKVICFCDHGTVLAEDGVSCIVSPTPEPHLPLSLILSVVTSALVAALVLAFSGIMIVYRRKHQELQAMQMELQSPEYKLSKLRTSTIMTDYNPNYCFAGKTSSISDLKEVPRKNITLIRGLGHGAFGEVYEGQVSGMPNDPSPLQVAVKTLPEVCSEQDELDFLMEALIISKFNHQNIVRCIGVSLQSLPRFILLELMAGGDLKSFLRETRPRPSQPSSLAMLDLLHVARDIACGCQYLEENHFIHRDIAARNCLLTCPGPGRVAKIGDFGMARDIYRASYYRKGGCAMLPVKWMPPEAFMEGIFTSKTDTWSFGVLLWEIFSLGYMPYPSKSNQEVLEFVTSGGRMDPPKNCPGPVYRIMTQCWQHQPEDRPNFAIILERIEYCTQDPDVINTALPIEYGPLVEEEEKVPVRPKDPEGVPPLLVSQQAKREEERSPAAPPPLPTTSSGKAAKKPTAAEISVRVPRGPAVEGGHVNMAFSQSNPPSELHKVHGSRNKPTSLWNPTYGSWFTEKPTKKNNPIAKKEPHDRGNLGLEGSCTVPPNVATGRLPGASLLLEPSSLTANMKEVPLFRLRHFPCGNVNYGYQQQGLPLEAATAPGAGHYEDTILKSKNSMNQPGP
T2 sequence (P35968 20-1356): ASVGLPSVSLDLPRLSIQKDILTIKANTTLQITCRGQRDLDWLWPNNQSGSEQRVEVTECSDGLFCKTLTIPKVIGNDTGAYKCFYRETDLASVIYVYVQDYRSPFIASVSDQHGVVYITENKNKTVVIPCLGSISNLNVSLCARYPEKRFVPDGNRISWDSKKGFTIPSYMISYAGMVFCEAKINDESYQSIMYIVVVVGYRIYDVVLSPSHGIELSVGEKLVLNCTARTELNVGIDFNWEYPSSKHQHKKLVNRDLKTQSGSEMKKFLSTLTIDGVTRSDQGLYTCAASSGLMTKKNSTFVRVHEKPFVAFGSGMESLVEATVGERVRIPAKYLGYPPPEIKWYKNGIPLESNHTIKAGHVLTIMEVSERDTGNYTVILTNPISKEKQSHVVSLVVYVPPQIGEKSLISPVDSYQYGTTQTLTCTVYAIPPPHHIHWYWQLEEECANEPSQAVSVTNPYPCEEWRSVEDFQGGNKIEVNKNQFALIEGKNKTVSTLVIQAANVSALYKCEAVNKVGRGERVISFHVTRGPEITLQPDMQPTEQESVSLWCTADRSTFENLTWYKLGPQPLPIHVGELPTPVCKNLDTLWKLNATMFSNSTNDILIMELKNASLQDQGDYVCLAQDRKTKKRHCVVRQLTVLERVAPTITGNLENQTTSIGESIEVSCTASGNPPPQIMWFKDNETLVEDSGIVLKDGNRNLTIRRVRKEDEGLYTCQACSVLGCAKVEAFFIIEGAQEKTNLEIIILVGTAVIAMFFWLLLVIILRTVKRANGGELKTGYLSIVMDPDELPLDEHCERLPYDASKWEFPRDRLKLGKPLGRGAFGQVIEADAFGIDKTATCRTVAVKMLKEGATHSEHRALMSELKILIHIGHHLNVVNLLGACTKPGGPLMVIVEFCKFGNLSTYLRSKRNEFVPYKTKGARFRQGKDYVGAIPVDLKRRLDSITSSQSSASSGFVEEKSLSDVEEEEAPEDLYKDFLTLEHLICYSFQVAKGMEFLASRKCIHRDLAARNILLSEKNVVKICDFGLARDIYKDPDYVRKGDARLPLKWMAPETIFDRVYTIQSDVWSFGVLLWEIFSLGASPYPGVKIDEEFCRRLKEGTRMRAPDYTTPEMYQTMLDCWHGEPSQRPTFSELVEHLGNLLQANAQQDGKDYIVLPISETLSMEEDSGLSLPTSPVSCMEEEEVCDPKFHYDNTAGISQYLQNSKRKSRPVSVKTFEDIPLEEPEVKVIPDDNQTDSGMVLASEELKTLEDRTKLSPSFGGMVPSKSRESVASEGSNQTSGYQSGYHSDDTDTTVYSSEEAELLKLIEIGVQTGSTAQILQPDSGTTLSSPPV
T13 sequence (P07333 20-972): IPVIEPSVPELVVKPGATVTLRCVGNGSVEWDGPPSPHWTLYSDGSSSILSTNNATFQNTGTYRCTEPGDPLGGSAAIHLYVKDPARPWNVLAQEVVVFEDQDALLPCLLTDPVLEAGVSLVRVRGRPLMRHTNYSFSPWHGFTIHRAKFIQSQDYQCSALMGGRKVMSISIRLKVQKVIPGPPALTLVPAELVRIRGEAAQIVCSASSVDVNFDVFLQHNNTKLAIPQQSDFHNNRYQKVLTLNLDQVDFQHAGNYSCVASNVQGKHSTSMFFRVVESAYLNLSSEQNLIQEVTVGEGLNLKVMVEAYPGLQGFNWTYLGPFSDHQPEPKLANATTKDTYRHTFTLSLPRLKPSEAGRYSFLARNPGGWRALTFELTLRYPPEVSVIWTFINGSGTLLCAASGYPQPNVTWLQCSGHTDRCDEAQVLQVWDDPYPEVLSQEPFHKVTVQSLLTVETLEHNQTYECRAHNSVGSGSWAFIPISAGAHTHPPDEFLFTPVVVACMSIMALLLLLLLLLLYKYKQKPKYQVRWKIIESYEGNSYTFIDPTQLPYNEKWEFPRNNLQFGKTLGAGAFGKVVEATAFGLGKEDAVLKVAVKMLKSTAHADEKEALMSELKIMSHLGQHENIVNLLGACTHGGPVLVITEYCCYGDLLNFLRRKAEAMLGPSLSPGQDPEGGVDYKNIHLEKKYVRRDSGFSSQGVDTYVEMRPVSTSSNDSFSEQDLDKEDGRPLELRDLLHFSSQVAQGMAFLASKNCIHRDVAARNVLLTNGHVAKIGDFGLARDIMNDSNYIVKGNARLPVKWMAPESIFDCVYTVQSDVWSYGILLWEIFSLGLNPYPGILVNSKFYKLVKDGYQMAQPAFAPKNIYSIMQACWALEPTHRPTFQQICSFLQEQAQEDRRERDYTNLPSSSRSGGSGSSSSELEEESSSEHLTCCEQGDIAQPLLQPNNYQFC

inhibition at 1 µM [1]: 78%
inhibition at 1 µM [2]: 63%
inhibition at 1 µM [3]: 98%
inhibition at 1 µM [4]: 70%
inhibition at 1 µM [5]: 95%
inhibition at 1 µM [6]: 68%
inhibition at 1 µM [7]: 99%
inhibition at 1 µM [8]: 100%
inhibition at 1 µM [9]: 99%
inhibition at 1 µM [10]: 53%
inhibition at 1 µM [12]: 100%
inhibition at 1 µM [13]: 57%
inhibition at 1 µM [14]: 100%
inhibition at 1 µM [15]: 68%
inhibition at 1 µM [16]: 81%
inhibition at 1 µM [17]: 99%
Structure (SMILES): CCc1cc(O)c(F)cc1-c1ccc2c(-c3nc4c([nH]3)CCN(C(=O)CN3CCOCC3)C4)n[nH]c2c1 [C-1, 1-(2-(6-(2-Ethyl-5-fluoro-4-hydroxyphenyl)-1H-indazol-3-yl)-1,4,6,7-tetrahydro-5H-imidazo[4,5-c]pyridin-5-yl)-2-morpholinoethan-1-one, reference compound]
GINI coefficient [11]: 0.46
CC15 [18]: 630 nM

Structure (SMILES): CCc1cc(O)c(F)cc1-c1cc(F)c2c(-c3nc4c([nH]3)CCN(C(=O)CN3CCOCC3)C4)n[nH]c2c1 [Form 1, 1-(2-(6-(2-Ethyl-5-fluoro-4-hydroxyphenyl)-4-fluoro-1H-indazol-3-yl)-1,4,6,7-tetrahydro-5H-imidazo[4,5-c]pyridin-5-yl)-2-morpholinoethan-1-one]
HPLC Purity ([19]; 2 weeks, 40° C./75% RH Open): 98.72 % a/a
HPLC Purity ([19]; 4 weeks, 25° C./60% RH Closed With Desiccant): 98.75 % a/a
HPLC Purity ([19]; 4 weeks, 25° C./60% RH Open): 98.75 % a/a
HPLC Purity ([19]; 4 weeks, 40° C./75% RH Closed With Desiccant): 98.75 % a/a
HPLC Purity ([19]; 4 weeks, 40° C./75% RH Open): 98.70 % a/a
HPLC Purity ([19]; 8 weeks, 25° C./60% RH Closed With Desiccant): 98.87 % a/a
HPLC Purity ([19]; 8 weeks, 25° C./60% RH Open): 98.75 % a/a
HPLC Purity ([19]; 8 weeks, 40° C./75% RH Closed With Desiccant): 98.80 % a/a
HPLC Purity ([19]; 8 weeks, 40° C./75% RH Open): 98.97 % a/a
HPLC Purity ([19]; 24 weeks, 25° C./60% RH Closed With Desiccant): 99.02 % a/a
HPLC Purity ([19]; 24 weeks, 25° C./60% RH Open): 98.78 % a/a
HPLC Purity ([19]; 24 weeks, 40° C./75% RH Closed With Desiccant): 99.06 % a/a
HPLC Purity ([19]; 24 weeks, 40° C./75% RH Open): 98.89 % a/a
HPLC Purity ([19]; 36 weeks, 25° C./60% RH Closed With Desiccant): 98.80 % a/a
HPLC Purity ([19]; 36 weeks, 25° C./60% RH Open): 98.75 % a/a
HPLC Purity ([19]; 36 weeks, 40° C./75% RH Closed With Desiccant): 98.86 % a/a
HPLC Purity ([19]; 36 weeks, 40° C./75% RH Open): 98.71 % a/a
changes in chemical purity ([19]; after 36 weeks at accelerated conditions of 40° C. and 75% relative humidity): no statistically significant changes
HPLC Purity ([19]; time point 0 weeks): 98.73 % a/a
hygroscopicity [20]: slightly-hygroscopic
weight gain, 5% to 70% relative humidity [20]: about 0.99%
weight gain, 5% to 90% relative humidity [20]: about 1.32%

Structure (SMILES): CCc1cc(O)c(F)cc1-c1cc(F)c2c(-c3nc4c([nH]3)CCN(C(=O)CN3CCOCC3)C4)n[nH]c2c1 [Form 2, 1-(2-(6-(2-Ethyl-5-fluoro-4-hydroxyphenyl)-4-fluoro-1H-indazol-3-yl)-1,4,6,7-tetrahydro-5H-imidazo[4,5-c]pyridin-5-yl)-2-morpholinoethan-1-one]
hygroscopicity [20]: non-hygroscopic
weight gain, 5% to 70% relative humidity [20]: about 0.12%
weight gain, 5% to 90% relative humidity [20]: about 0.18%
